Patent publication US20170007561A1, “CONTEMPORANEOUS, HETEROGENEOUSLY-ORIENTED, MULTI-TARGETED THERAPEUTIC MODIFICATION AND/OR MODULATION OF DISEASE BY ADMINISTRATION OF SULFUR-CONTAINING, AMINO ACID-SPECIFIC SMALL MOLECULES” (BioNumerik Pharmaceuticals, Inc., priority 2014, published 2017)
“Also recorded” adds a separate entry of the source. Values belong to the molecule of their own block, whether it stands above or below them.

Key:
[1] = test system: Trx/TrxR system in human cancer cells; details: cited from earlier work
bovine TrxR = target: T1, bovine TrxR (Bos taurus, UniProt O62768); experiment: TrxR NADPH oxidation assay without Trx (Reaction A); format: biochemical; details: TrxR alone + NADPH, no Trx; disulfide 0.5 mM
T1 construct: purchased American Diagnostica
T1 sequence (O62768 1-499): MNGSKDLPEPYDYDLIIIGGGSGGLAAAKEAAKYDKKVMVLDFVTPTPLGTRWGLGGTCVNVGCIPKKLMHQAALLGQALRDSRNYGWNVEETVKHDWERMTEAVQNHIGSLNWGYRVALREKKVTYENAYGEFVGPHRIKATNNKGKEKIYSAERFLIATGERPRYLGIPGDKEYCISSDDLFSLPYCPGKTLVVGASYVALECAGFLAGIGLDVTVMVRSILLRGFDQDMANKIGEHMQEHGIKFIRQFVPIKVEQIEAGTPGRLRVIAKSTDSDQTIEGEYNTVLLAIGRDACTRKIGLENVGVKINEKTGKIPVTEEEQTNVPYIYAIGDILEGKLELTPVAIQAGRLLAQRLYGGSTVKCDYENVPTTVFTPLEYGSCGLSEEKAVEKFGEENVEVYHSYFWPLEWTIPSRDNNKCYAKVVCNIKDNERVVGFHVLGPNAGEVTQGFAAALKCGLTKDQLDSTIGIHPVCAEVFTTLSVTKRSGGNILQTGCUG

TrxR/Trx system = target: T2, TrxR/Trx system (Homo sapiens, UniProt P10599); experiment: TrxR/Trx NADPH oxidation assay; format: biochemical; details: increasing concentrations of test substance
T2 construct: purchased Sigma (Trx); American Diagnostica (bovine TrxR)
T2 sequence (P10599 1-105): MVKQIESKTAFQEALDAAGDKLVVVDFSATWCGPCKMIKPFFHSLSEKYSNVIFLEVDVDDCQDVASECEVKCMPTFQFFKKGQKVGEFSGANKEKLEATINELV
Excerpt: (Note: error bars are small and may be obscured by the symbols). […] (Note: error bars were omitted but assays were run in quadruplicate with typical errors of 5-8% between individual replicates). […] Panel D: Initial velocity reaction rates corresponding to progress curves shown in Panel C. With time, Trx-mesna and Trx-GSH are converted back to apo-Trx by Trx reductase (see also, FIG. 69, Panel E).

[2] = test system: mammalian thioredoxin reductase (TrxR); details: cited from earlier work
some cell lines = experiment: In vitro cytotoxicity of mesna; details: ≦400 μM; unpublished data
[3] = test system: bovine brain microtubule protein (α-/β-tubulin); experiment: Microtubule protein polymerization assay (OD350); format: biochemical; details: for effect on GTP promoted microtubule protein polymerization: mesna, even at 10 mM
[4] = read-out: Cmax for mesna; 41 g/m^2 Tavocept; cited from earlier work
[5] = test system: non-small cell lung cancer; details: patients greater than or equal to 65 years, carboplatin and paclitaxel chemotherapy; cited from earlier work
[6] = target: Recombinant human thioredoxin (Trx) (human) (UniProt P10599)
[7] = target: T3, human Trx with rat liver TrxR (Homo sapiens, UniProt P10599); experiment: TrxR/Trx insulin disulfide reduction assay (NADPH oxidation 340 nm, insulin B chain precipitation 650 nm); format: biochemical; details: modified Trx purified from free Tavocept or glutathione disulfide
T3 sequence (P10599 1-105): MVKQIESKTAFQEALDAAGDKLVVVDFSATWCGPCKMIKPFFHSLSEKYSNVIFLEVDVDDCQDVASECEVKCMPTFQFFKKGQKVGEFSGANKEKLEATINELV

Molecule: CCOC(=O)NC1=C(N2CC2)C(=O)C(NC(=O)OCC)=C(N2CC2)C1=O [Diaziquone]
Inhibition of Trx/TrxR system and cellular ribonucleotide reductase activity [1]: inhibit the Trx/TrxR system resulting in a concentration-dependent inhibition of cellular ribonucleotide reductase activity

Molecule: N[C@@H](CCC(=O)N[C@@H](CSSCCS(=O)(=O)O)C(=O)NCC(=O)O)C(=O)O [MSSG, mesna-glutathione disulfide]
NADPH Oxidation, Reaction A (bovine TrxR): 0.3 ± 0.02 nmol/min/mL | NADPH oxidation by TrxR and Trx (TrxR/Trx system): increases

Molecule: NC(CCSSCCS(=O)(=O)O)C(=O)O (centres unmarked) [MSSH, mesna-homocysteine disulfide]
NADPH Oxidation, Reaction A (bovine TrxR): 0.0 ± 0.03 nmol/min/mL | NADPH oxidation by TrxR and Trx (TrxR/Trx system): increases

Molecule: COc1cccc2c1C(=O)c1c(O)c3c(c(O)c1C2=O)C[C@@](O)(C(=O)CO)C[C@@H]3O[C@H]1C[C@H](N)[C@H](O)[C@H](C)O1 [doxorubicin]
Inhibition of TrxR [2]: not inhibitors of TrxR | Inhibition of Trx/TrxR system and cellular ribonucleotide reductase activity [1]: inhibit the Trx/TrxR system resulting in a concentration-dependent inhibition of cellular ribonucleotide reductase activity

Molecule: O=S(=O)([O-])CCS.[Na+] [mesna, 2-mercapto ethane sulfonate]
Cytotoxicity in vitro (some cell lines): can be cytotoxic to some cell lines | effect alone on microtubule protein polymerization ([3]; in the absence of monoaquocisplatin): neither mesna nor cysteine alone (in the absence of monoaquocisplatin) had any effect; also recorded: no detectable effect | effect on paclitaxel-induced hyperpolymerization of MTP ([3]; mesna alone): no detectable effect | effect on GTP promoted microtubule protein polymerization [3]: did not affect microtubule protein polymerization in an appreciable manner | effect on GTP promoted microtubule protein polymerization ([3]; listed as Mesna): does not affect | protection against monoaquocisplatin-induced loss of microtubule protein polymerization ([3]; preincubated with monoaquocisplatin (36 μM), mesna or cysteine 200 μM): prevented the monoaquocisplatin-induced loss; also recorded: able to protect | Cmax [4]: ~323 µM

Molecule: Avastin: Avastin (bevacizumab)
Survival advantage [5]: did not confer a survival advantage

NADPH Oxidation (nmoles/min/mL) (nmoles/min/mL) (insulin): 18
Molecule: Recombinant human thioredoxin (Trx) (from UniProt P10599) (enzyme)

rate of NADPH oxidation at 340 nm in the Prx assay (% reduction in rate) [6]: 43
Molecule: Tavocept-modified Prx (Prx-mesna) (from UniProt Q06830) (enzyme)

NADPH Oxidation (nmoles/min/mL) (nmoles/min/mL) (insulin): 0.3
Molecule: bovine Trx reductase (TrxR) (from UniProt O62768) (enzyme)

Effect on initial velocity of insulin reduction relative to apo-Trx [7]: inhibitory effect
B1: Trx-mesna: Trx covalently modified by a Tavocept-derived mesna moiety (protein)
chain: MVKQIESKTAFQEALDAAGDKLVVVDFSATWCGPCKMIKPFFHSLSEKYSNVIFLEVDVDDCQDVASECEVKCMPTFQFFKKGQKVGEFSGANKEKLEATINELV
modifications: Tavocept-derived mesna mixed disulfide on Cys73 and on Cys62 or Cys69 (mass spectroscopy)
notes: Trx covalently modified by a Tavocept-derived mesna moiety

Effect on initial velocity of insulin reduction relative to apo-Trx [7]: a clear effect on initial velocity
B2: Trx-GSH: Trx modified by glutathione after incubation with glutathione disulfide (protein)
chain: MVKQIESKTAFQEALDAAGDKLVVVDFSATWCGPCKMIKPFFHSLSEKYSNVIFLEVDVDDCQDVASECEVKCMPTFQFFKKGQKVGEFSGANKEKLEATINELV
modifications: glutathionylated (cysteine-73 in the control reactions with glutathione)
notes: Trx modified by glutathione after incubation with glutathione disulfide
